Data reported in paper PMC12456999, “Sulfonyl Homoserine Lactones Are Tunable Probes to Inhibit the Quorum Sensing Receptor RhlR and Reduce Swarming Motility in Pseudomonas aeruginosa” (ACS Infectious Diseases, 2025).
Read-outs that look alike come from different tables or passages of the source.

Experiments:
bacterial growth = experiment: Effect on bacterial growth (OD600 over time); assay type: cell-based; conditions: at >2 mM concentrations
Experimental: All new compounds were fully characterized for purity and identity (see Supporting Information). […] The remaining compounds had no effect on growth over the concentration range tested. All compounds were tested in bacteriological assays in triplicate and in at least three separate trials using unique cultures. IC50 and EC50 values in reporter assays were calculated using GraphPad Prism software (version 9.0) with a variable slope sigmoidal curve fit.

RhlR = molecular target: T1, RhlR (Pseudomonas aeruginosa, UniProt P54292); experiment: E. coli (JLD271) RhlR reporter antagonism assay, in competition with BHL; assay type: cell-based; conditions: for max. RhlR inhibition (%): BHL at 10 μM set to 0%, media control set to 100%
T1 construct: expressed in transfected cells; host or cells: E. coli JLD271 (K-12 ΔlacX74 sdiA271::Cam) carrying pJN105-R2 (RhlR expression) and pSC11-rhlI (rhlI'-lacZ reporter)
T1 sequence (P54292 whole entry): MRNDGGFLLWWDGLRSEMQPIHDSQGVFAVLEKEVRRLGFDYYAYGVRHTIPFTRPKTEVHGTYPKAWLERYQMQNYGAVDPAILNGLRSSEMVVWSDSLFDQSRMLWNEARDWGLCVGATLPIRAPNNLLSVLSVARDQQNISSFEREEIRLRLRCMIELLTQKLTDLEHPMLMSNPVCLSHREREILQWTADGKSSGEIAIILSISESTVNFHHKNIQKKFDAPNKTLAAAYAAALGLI
Experimental: To start, the sulfonyl HLs were evaluated for their ability to antagonize RhlR using a previously described E. coli strain (JLD271) harboring a RhlR expression plasmid and a rhlI reporter plasmid. This E. coli reporter produces RhlR, and protein activity in the presence of an added small molecule can be measured via the production of β-galactosidase as quantified via luminescence (see Methods). Compounds were screened in competition against RhlR’s native ligand, BHL (at its EC50 value in this strain, 10 μM), over a range of concentrations to generate antagonism dose–response curves (see Supporting Information) and calculate IC50 values (listed in Table ). A small set of compounds was also screened for RhlR agonism in the E. coli reporter; the agonism assay format was identical to the antagonism assay, except no BHL was added.
RhlR activity in E. coli strain JLD271 (ΔsdiA) was measured via a β-galactosidase reporter (rhI-lacZ) using the Promega Beta-Glo Assay System as previously described. RhlR activity in P. aeruginosa PA14 (ΔrhlIΔlasI) was measured via a GFP reporter (rhlA-gfp). […] See Supporting Information for both reporter protocols.
Supporting Information — Aguirre-Figueroa et al.
E. coli and P. aeruginosa RhlR reporter assay protocols.
E. coli RhlR reporter assay. RhlR activity in E. coli strain JLD271 (ΔsdiA) was measured via a β-galactosidase reporter using the Promega Beta-Glo® Assay System as previously described.10 A schematic of the reporter plasmids and assay protocol is shown in Scheme S1. Briefly, a single colony of E. coli JLD271 harboring the RhlR expression plasmid pJN105-R and the rhlI-lacZ transcriptional fusion reporter pSC11-R (Table S1) was grown in LB medium with 100 μg/mL ampicillin and 10 μg/mL gentamicin overnight (~16 h). The culture was diluted 1:10 in fresh LB medium and grown to an OD600 = 0.25 (0.23–0.28) (~0.5 h). Arabinose was added to a final concentration of 4 mg/mL to induce the expression of pJN105-R. Aliquots (2 μL) of compound DMSO stock solution or serial dilution were added to the inner wells (i.e., non-periphery rows) of a 96-well microtiter plate. To six inner wells, DMSO alone (vehicle) was added as a negative control. For agonism assays, BHL was added to six inner wells as a positive control (to achieve 1 mM). For antagonism assays, BHL was added to six inner wells as a positive control and to all of the other sample wells except for the vehicle control wells (to achieve 10 μM ). Subculture (198 μL) was then dispensed into each inner well. To the outer (periphery) wells, 200 μL of water were added to maintain humidity during incubation. Plates were then incubated for 4 h (shaking) at 37 °C.
Scheme S1. Schematic of E. coli reporter plasmids and assay. (A) Representation of plasmids used in the heterologous reporter system. (B) General reporter assay workflow. BioRender used in […]
After the incubation period, the OD600 of each well was measured using a plate reader. Cell dilution plates were prepared by transferring 10 μL from the incubated culture plate wells to a fresh 96-well plate and adding 90 μL of 18 MΩ water to each well. Next, 10 μL aliquots of diluted Beta-Glo® reagent (1:2 with 18 MΩ water) were added to each well of a white 384-well microtiter plate, followed by 10 μL of culture from each well of the dilution plate. The 384-well plate was incubated (without shaking; i.e., static) for 30 min at 30 °C. After incubation, luminescence of each well was measured using a plate reader. To determine levels of RhlR activity, raw luminescence was divided by OD600 to correct for growth variation and then normalized to the negative (0%) and positive (100%) control wells.
Dose-response reporter assay data for compounds in the E. coli RhlR reporter.
Dose-response curves for RhlR antagonism by compounds against 10 μM BHL using the E. coli JLD271 RhlR reporter are provided below. Compound names are indicated on the x-axis of each plot.
All assays performed in triplicate as at least three separate biological replicates. […]

[1] = IC50, E. coli JLD271 RhlR reporter, against 10 μM BHL

SMILES | effect on bacterial growth (bacterial growth) | potency gain (RhlR; 33 vs 16, 43 vs 24, 86 vs 45, E. coli RhlR reporter IC50) [fold] | fold lower IC50 value than 3-Cl BSHL (28) (RhlR; E. coli RhlR reporter IC50) | max. RhlR inhibition (%) (RhlR; E. coli RhlR reporter) | IC50 (RhlR; [1]) [µM] | IC50 (RhlR; E. coli JLD271 RhlR reporter, against 10 μM BHL) [µM] | IC50 (RhlR; read-out: inhibitory potency on average (74, 75 and 18), average over the C4, C5 and C6 ASHLs, E. coli RhlR reporter) [µM] | fold more potent than 4-bromo BSHL (35) (RhlR; E. coli RhlR reporter IC50) [fold]
O=C1OCC[C@@H]1NS(=O)(=O)c1ccc(Cl)c(Cl)c1 [Compound 43, 3,4-di-Cl BSHL] | modest effect on bacterial growth | ≤ 40 | over 2 fold | 99 | 54.3 | – | – | –
CCCCCS(=O)(=O)N[C@H]1CCOC1=O [Compound 75, C5 ASHL] | – | – | – | 84 | – | 20.6 | ~28 | –
O=C1OCC[C@@H]1NS(=O)(=O)c1cccc(Br)c1 [Compound 39, 3-bromo BSHL] | modest effect on bacterial growth | – | – | 90 | 29.9 | – | – | ~6
O=C1OCC[C@@H]1NS(=O)(=O)c1ccc(F)c(F)c1 [Compound 59, 3,4-di-F BSHL] | – | – | – | 87 | 87.8 | – | – | –
